One assay deals with BACE-1 (Homo sapiens (Human), UniProt P56817). Kind of assay: BACE-1 Cellular Assay (Aβ in HEK293-APPswe/lon cells). It counts as cell-based. The note with it: 4 hours. Here is the method: Assay 3: BACE-1 Cellular Assay
Certain compounds of the invention, identified in the tables herein, were determined to be potent inhibitors of BACE-1 in the following cellular assay. HEK293 cells are obtained from the American Type Culture Collection (ATCC) and stably transfected with the human amyloid precursor protein cDNA containing the FAD Swedish (enhances β-secretase processing) and London (enhances Aβ42 cleavage) mutations. A HEK293 stable clone with Aβ expression (HEK293-APP^swe/lon) is identified and maintained at 37° C., 5% CO2 in the ATCC-recommended growth media supplemented with hygromycin. […] Aβ40 or Aβ42 are measured in 15 μl of media using a mesoscale based ELISA assay. Full length Aβ40 and Aβ42 peptides are captured with the N-terminal specific biotinylated-WO2 monoclonal antibody and detected using either the ruthenylated Aβ40 C-terminal specific monoclonal antibody, G2-10 or the ruthenylated Aβ42 C-terminal specific monoclonal antibody G2-11 respectively. Raw electrochemiluminescnce values are measured using a Mesoscale Sector Imager plate reader and are plotted as a function of compound concentration. IC50 values are interpolated from the data using nonlinear regression analysis (Sigmoidal dose response fit with variable slope) of the data using GraphPad Prism software.

The next assay concerns CSF Aβ40. Kind of assay: Aβ Reduction In Vivo (rat CSF Aβ40). The note with it: male CD IGS rats, 10 mg/kg oral gavage, CSF at 3 hours, change vs vehicle. The protocol:
Assay 5: Aβ Reduction In Vivo
The in vivo efficacy and/or potency of BACE inhibitors (test compounds) can be evaluated using a variety of animal models, including mouse, rat, dog, and monkey, and these animals can be wild type, transgenic, or gene knockout animals.
Generally, animals are administered (by oral gavage, intravenous injection, or by other suitable route) a test compound in doses ranging from, for example, 0.1 mg/kg (mg of compound per kg of animal body weight) to 100 mg/kg formulated in vehicles, such as cyclodextrin, phosphate buffer, hydroxypropyl methylcellulose or other suitable vehicles. One to twenty-four hours following the administration of compound, animals are sacrificed, and tissues (for example, brain, cerebrospinal fluid (CSF), and/or plasma) are collected for analysis of Aβ levels and/or test compound concentrations (Dovey et al., 2001, Journal of Neurochemistry, 76, 173-181). Tissue samples are processed appropriately and then analyzed for the presence of Aβ by specific sandwich ELISA assays based on electrochemiluminescence (ECL) technology.
For example, in the following assay for which data are reported below, male CD IGS rats (body weight approximately 120 g, Charles River Laboratories, Kingston, N.Y.) were used to assess lowering of CSF levels of Aβ1-40 (Aβ40) in the presence of compounds of the invention. At time 0, animals were administered by oral gavage a test compound at a dose of 10 mg/kg in 20% hydroxypropyl-β-cyclodextrin (dosing volume 5 mL/kg). A separate group of animals received 20% hydroxypropyl-β-cyclodextrin alone to serve as the vehicle control group. Three hours after administration, the rats were euthanized with excess CO2. Immediately following euthanasia, CSF was collected from the cisterna magna and quickly frozen on dry ice. Samples were stored at −80° C. until quantification of Aβ40 levels.
The measurement of endogenous rat Aβ40 in CSF relied on the 585 antibody (Ab585, BioSource, NONO585), which specifically recognizes the N-terminal sequence of rodent Aβ40, and on the monoclonal antibody, G2-10, which specifically recognizes the free C-terminus of Aβ40. Ab585 was labeled with biotin (b-Ab585) by first dialyzing the antibody sample extensively versus PBS (pH 7.8) to remove impurities, followed by dilution to between 1 and 2 mg/mL protein concentration. EZ-Link Sulfo-NHS-LC-Biotin (Pierce) was dissolved in PBS (pH 7.8) at a concentration of 1 mg/mL immediately prior to use. Ab585 was labeled with EZ-Link Sulfo-NHS-LC-biotin using a 10:1 biotin:antibody ratio by incubation at room temperature for 1 hour. The labeling reaction was quenched by addition of 1.0 M glycine to a final concentration of 0.1 M followed by 10 minute incubation at room temperature. Glycine was removed by extensive dialysis versus PBS.
For rat CSF Aβ40 determinations, a calibration curve of various concentrations of synthetic rodent Aβ40 was assayed in parallel with rat CSF samples in duplicate using an avidin-coated 96-well MSD plate (Mesoscale Diagnostics). Either 50 μL of rodent Aβ40 standards diluted in PBS (pH 7.4) supplemented with 1% BSA and 1% Tween-20 (standard diluent buffer) or 40 μL of standard diluent buffer plus 10 μL rat CSF were added to each 96 well avidin-coated plate. To each well was added 50 μL of 0.1 M HEPES (pH 7.5), 2% BSA, 2% Tween-20, 0.3 M NaCl (2×Aβ40 buffer) supplemented with the b-Ab585 capture and ruthenylated-G2-10 detection antibodies diluted to 1 μg/mL and 0.5 μg/mL, respectively. Plates were shaken for 1 min on a microplate shaker, covered to protect from light and incubated overnight (˜16 h) at 4° C. For detection, plates were first washed twice with 100 μL of 1×CSF Aβ40 buffer followed by addition of 160 μL of 1×MSD read buffer-T (Mesoscale Diagnostics) diluted in 1×CSF Aβ40 buffer. Plates were read on a MSD Sector Imager 2400 model (Mesoscale Diagnosotics). […]

Assay [1] concerns the target purified human Cathepsin-D (Homo sapiens (Human), UniProt P07339). Kind of assay: Cathepsin-D Assay (time-resolved FRET).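 Note: Europium-labelled peptide substrate with QSY7 quencher, cleavage read as 620 nm fluorescence after 30 min preincubation then 30 min reaction at 30 °C, pH 5.0, inhibition lowers signal.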 It counts as biochemical. The note with it: Assay 4; Ki calculated from IC50 by Cheng-Prusoff.
Protocol: Assay 4: Cathepsin-D Assay
This substrate contains an C-terminal QSY7 moiety that serves as a quencher of the N-terminal Europium fluorophore (620 nm Em). In the absence of enzyme activity, 620 nm fluorescence is low in the assay and increased linearly over 1 hour in the presence of uninhibited Cathepsin-D enzyme. Inhibition of Cathespin D cleavage of the Eu-Aspartyl Protease-QSY7 substrate by inhibitors is manifested as a suppression of 620 nm fluorescence.
Varying concentrations of inhibitors in a volume of 100 nl are preincubated with purified human Cathepsin-D (0.1 nM in 10 μl) for 30 minutes at 30° C. in reaction buffer containing 100 mM Na-Acetate pH 5.0, and 0.02% Brij-35. Reactions are initiated by addition of 10 μl of 100 nM Eu-Aspartyl Protease-QSY7 substrate (50 nM final) to give a final reaction volume of 20 μl in a 384 well Nunc HTRF plate. The reactions are incubated at 30° C. for 30 minutes. The 620 nm fluorescence is then read on a Envision Multilabel plate reader (Perkin-Elmer) using a 200 microsecond delay followed by a 400 microsecond acquisition time window. Inhibitor IC50 values are derived from non-linear regression analysis of concentration response curves.
Assay [2] addresses soluble human BACE-1 catalytic domain (Homo sapiens (Human), UniProt P56817). Kind of assay: BACE-1 Ki Assay (BACE-1 HTRF FRET Assay). The assay is classed as biochemical. The note with it: Assay 1; Ki calculated from IC50 by Cheng-Prusoff. Here is the method:
Assay 1: BACE-1 Ki Assay (BACE-1 HTRF FRET Assay)
The compounds of the invention were determined to be potent inhibitors of BACE-1 using the following assay.
The following reagents were used in this assay. Na^+-Acetate pH 5.0; 1% Brij-35; Glycerol; Dimethyl Sulfoxide (DMSO); Recombinant human soluble BACE-1 catalytic domain (>95% pure); APP Swedish mutant peptide substrate (QSY7-APP^swe-Eu): QSY7-[…]-Europium-amide.
A homogeneous time-resolved FRET assay can be used to determine IC50 values for inhibitors of the soluble human BACE-1 catalytic domain. This assay monitors the increase of 620 nm fluorescence that resulted from BACE-1 cleavage of an APPswedish APP^swe mutant peptide FRET substrate (QSY7-[…]-Europium-amide). This substrate contains an N-terminal QSY7 moiety that serves as a quencher of the C-terminal Europium fluorophore (620 nm Em). In the absence of enzyme activity, 620 nm fluorescence is low in the assay and increased linearly over 3 hours in the presence of uninhibited BACE-1 enzyme. Inhibition of BACE-1 cleavage of the QSY7-APP^swe-Eu substrate by inhibitors is manifested as a suppression of 620 nm fluorescence.
Varying concentrations of inhibitors at 3× the final desired concentration in a volume of […] are preincubated with purified human BACE-1 catalytic domain (3 nM in 10 μl) for 30 minutes at 30° C. in reaction buffer containing 20 mM Na-Acetate pH 5.0, 10% glycerol, 0.1% Brij-35 and 7.5% DSMO. Reactions are initiated by addition of 10 μl of 600 nM QSY7-APP^swe-Eu substrate (200 nM final) to give a final reaction volume of 30 μl in a 384 well Nunc HTRF plate. The reactions are incubated at 30° C. for 1.5 hours. The 620 nm fluorescence is then read on a Rubystar HTRF plate reader (BMG Labtechnologies) using a […] delay followed by a 400 millisecond acquisition time window. Inhibitor IC50 values are derived from non-linear regression analysis of concentration response curves. Ki values are then calculated from IC50 values using the Cheng-Prusoff equation using a previously determined […] of 8 μM for the QSY7-APP^swe-Eu substrate at BACE-1. The example compounds of the invention were measured in this assay.

In assay [3] the target is purified human autoBACE-2 (Homo sapiens (Human), UniProt Q9Y5Z0). Kind of assay: BACE-2 Assay (BACE-HTRF assay). It counts as biochemical. The settings on record: Assay 2; Ki calculated from IC50 by Cheng-Prusoff; read-out: BACE2 Ki. The protocol:
The compounds of the invention were determined to be potent inhibitors of BACE-2 using the following assay. Inhibitor IC50s at purified human autoBACE-2 are determined in a time-resolved endpoint proteolysis assay that measures hydrolysis of the QSY7-[…]-Eu-amide FRET peptide substrate (BACE-HTRF assay). BACE-mediated hydrolysis of this peptide results in an increase in relative fluorescence (RFU) at 620 nm after excitation with 320 nm light Inhibitor compounds, prepared at 3× the desired final concentration in 1×BACE assay buffer (20 mM sodium acetate pH 5.0, 10% glycerol, 0.1% Brij-35) supplemented with 7.5% DMSO are pre-incubated with an equal volume of autoBACE-2 enzyme diluted in 1×BACE assay buffer (final enzyme concentration 1 nM) in black 384-well NUNC plates for 30 minutes at 30° C. […] DMSO is present at […] final concentration in the assay. Following laser excitation of sample wells at 320 nm, the fluorescence signal at 620 nm is collected for 400 ms following a 50 μs delay on a RUBYstar HTRF plate reader (BMG Labtechnologies). Raw RFU data is normalized to maximum (1.0 nM BACE/DMSO) and minimum (no enzyme/DMSO) RFU values. IC50 values are determined by nonlinear regression analysis (sigmoidal dose response, variable slope) of percent inhibition data with minimum and maximum values set to 0 and 100 percent respectively. Similar IC50s are obtained when using raw RFU data. The Ki values are calculated from the IC50 using the Cheng-Prusoff equation.

We go through 4 compounds from patent US9732088B2, “C2-carbocyclic iminothiazine dioxides as BACE inhibitors, compositions, and their use” (Merck Sharp & Dohme Corp., priority 2014, dated 2017).

Chain of BACE-1 (P56817 46-501): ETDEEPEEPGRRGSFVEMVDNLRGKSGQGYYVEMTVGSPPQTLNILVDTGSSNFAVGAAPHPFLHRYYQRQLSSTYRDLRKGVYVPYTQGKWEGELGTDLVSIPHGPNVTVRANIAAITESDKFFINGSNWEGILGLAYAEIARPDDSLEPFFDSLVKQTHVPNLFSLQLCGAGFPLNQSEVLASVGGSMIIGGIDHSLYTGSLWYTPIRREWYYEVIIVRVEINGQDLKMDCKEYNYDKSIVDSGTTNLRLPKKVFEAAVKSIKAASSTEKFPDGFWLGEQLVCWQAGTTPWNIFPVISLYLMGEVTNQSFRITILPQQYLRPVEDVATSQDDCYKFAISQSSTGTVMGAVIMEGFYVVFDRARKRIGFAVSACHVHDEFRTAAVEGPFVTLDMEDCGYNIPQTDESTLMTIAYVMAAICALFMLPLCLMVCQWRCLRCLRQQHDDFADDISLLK
Chain of soluble human BACE-1 catalytic domain (P56817 75-416): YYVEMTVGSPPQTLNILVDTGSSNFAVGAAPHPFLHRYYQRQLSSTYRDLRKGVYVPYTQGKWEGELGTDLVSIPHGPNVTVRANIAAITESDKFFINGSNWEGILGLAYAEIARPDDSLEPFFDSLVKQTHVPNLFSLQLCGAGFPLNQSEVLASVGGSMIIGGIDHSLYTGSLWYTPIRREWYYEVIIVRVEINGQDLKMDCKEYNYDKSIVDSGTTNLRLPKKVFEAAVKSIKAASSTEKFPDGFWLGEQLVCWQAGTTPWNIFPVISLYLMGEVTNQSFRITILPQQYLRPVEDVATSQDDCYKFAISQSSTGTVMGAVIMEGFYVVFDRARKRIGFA
Chain of purified human autoBACE-2 (Q9Y5Z0 63-466): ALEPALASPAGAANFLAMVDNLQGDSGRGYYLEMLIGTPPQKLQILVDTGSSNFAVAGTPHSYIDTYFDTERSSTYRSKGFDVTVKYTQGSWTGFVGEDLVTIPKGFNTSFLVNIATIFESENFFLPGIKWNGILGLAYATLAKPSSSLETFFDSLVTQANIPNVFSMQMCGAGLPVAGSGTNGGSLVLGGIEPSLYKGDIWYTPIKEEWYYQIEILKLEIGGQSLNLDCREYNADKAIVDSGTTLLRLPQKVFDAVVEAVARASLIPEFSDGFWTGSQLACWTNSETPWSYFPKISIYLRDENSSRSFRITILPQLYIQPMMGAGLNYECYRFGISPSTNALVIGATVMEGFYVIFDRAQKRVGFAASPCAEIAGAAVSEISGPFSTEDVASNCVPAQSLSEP
Chain of purified human Cathepsin-D (P07339 65-412): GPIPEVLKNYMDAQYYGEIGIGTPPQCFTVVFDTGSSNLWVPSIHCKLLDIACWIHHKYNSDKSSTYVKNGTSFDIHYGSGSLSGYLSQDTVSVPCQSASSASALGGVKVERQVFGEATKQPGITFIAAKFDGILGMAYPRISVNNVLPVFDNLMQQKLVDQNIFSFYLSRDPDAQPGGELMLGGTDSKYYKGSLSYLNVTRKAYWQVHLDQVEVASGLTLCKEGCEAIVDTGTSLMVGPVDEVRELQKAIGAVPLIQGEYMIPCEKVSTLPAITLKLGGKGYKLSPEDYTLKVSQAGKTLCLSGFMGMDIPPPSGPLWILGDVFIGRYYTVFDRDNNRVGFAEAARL

In the case of `COc1cnc2c(Nc3ccc(F)c([C@]4(C)CS(=O)(=O)[C@@](C)(C5CC5)C(N)=N4)c3)ccnc2c1` [Example 36, (3R,6S)-5-amino-6-cyclopropyl-3-(2-fluoro-5-((7-methoxy-1,5-naphthyridin-4-yl)amino)phenyl)-3,6-dimethyl-3,6-dihydro-2H-1,4-thiazine 1,1-dioxide], the IC50 (usually the concentration needed to halve the response being measured) against BACE-1 stood at 3.5 nM. For the same compound, the “Aβ reduction in vivo in rat (Δ% CSF Aβ40 @ 10 mpk)” value in the assay on CSF Aβ40 is −67%.
Take `COc1cnc2c(Nc3cc([C@]4(C)CS(=O)(=O)[C@@](C)(C5CC5)C(N)=N4)c(F)cn3)ccnc2n1` [Example 35, (3R,6S)-5-amino-6-cyclopropyl-3-(5-fluoro-2-((3-methoxypyrido[2,3-b]pyrazin-8-yl)amino)pyridin-4-yl)-3,6-dimethyl-3,6-dihydro-2H-1,4-thiazine 1,1-dioxide]: on BACE-1, half-maximal inhibition (IC50) required 10 nM. The “Aβ reduction in vivo in rat (Δ% CSF Aβ40 @ 10 mpk)” value in the assay with CSF Aβ40 is recorded as −75%.
In the case of `C[C@@]1(c2cc(Nc3nccc4cc(Cl)cnc34)ncc2F)CS(=O)(=O)[C@@](C)(C2CC2)C(N)=N1` [Example 27, (3R,6S)-5-amino-3-(2-((3-chloro-1,7-naphthyridin-8-yl)amino)-5-fluoropyridin-4-yl)-6-cyclopropyl-3,6-dimethyl-3,6-dihydro-2H-1,4-thiazine 1,1-dioxide], the Ki (usually the dissociation constant of the complex between target and ligand, obtained from inhibition or displacement) in assay [1] is more than 9400 nM; in assay [2], 10 nM; in assay [3], 2.9 nM. In addition, the IC50 against BACE-1 is 180 nM.
Taken in the same sequence, the figures for `COc1cnc2c(Nc3cc([C@]4(C)CS(=O)(=O)[C@@](C)(C5CC5)C(N)=N4)c(F)cn3)nccc2n1` [Example 9, N-{4-[(3R,6S)-6-cyclopropyl-5-imino-3,6-dimethyl-1,1-dioxidothiomorpholin-3-yl]-5-fluoropyridin-2-yl}-2-methoxypyrido[3,4-b]pyrazin-5-amine] were more than 9400 nM, 13.6 nM, 1.3 nM and 111 nM.
